Measured values as given in US20250025454A1 (priority 2021, published 2025).
In brackets after ≈: the same amount, converted by molar mass. Several values for one entry are separate records, joined by “and”; a condition that tells them apart may be missing. Equal entries are not always repeated. Entries after “also recorded” stand apart in the source; their conditions may differ. Where two headings read alike, the source gives them in different places.

Key:
[1] = in vivo; cited from earlier work
[2] = in vivo; conditions: female, 129/S, mouse
[3] = female, 129/S, mouse, in vivo
[4] = Pharmacokinetics (plasma and lung tissue) after single and 5-day repeat oral dosing in female 129S1 mice; conditions: for adverse reactions / tolerability: female 129S1 mice, PO 50 and 250 mg/kg up to 5 days; for Kp: Lung/Plasma AUC ratio; for AUC(0-t): AUClast ± SE; for MRT last at 5 day / MRT last: MRTlast; for Kp at 24 h: L/P Ratio, non-infected mice, 250 mg/kg QD oral
[5] = male, Sprague-Dawley, rat, in vivo
[6] = test system: SARS-CoV-2; conditions: Scripps ReFrame database; cited from earlier work
[7] = test system: SARS-CoV-2; conditions: 35 compounds tested
[8] = Scripps ReFrame database; cited from earlier work
[9] = test system: SARS-CoV-2/WA1; format: cell-based
[10] = in vivo; conditions: male, Sprague-Dawley, rat, po; for AUC(0-t): AUClast
[11] = test system: SARS-CoV-2; conditions: Scripps ReFrame database; cited from earlier work; remark: listed apart in the source
[12] = female, 129S1, mouse, in vivo, po
[13] = cited from earlier work
[14] = in vivo; conditions: female, 129S1, mouse; for Tmax: range
[15] = female, 129S1, mouse, in vivo, 250 mg/kg
[16] = female, 129S1, mouse, in vivo, po, 50 mg/kg
[17] = female, 129S1, mouse, in vivo, po, 50 mg/kg, plasma, 50 mg/kg PO multiple, 5-day, dose
[18] = female, 129S1, mouse, in vivo, po, 50 mg/kg, plasma, 50 mg/kg PO single dose
[19] = female, 129S1, mouse, in vivo, po, 250 mg/kg
[20] = female, 129S1, mouse, in vivo, po, 250 mg/kg, plasma, 250 mg/kg PO multiple, 5-day, dose
[21] = female, 129S1, mouse, in vivo, po, 250 mg/kg, plasma, 250 mg/kg PO single dose
[22] = female, 129S1, mouse, in vivo, po, 250 mg/kg, lung, 250 mg/kg PO multiple, 5-day, dose
[23] = 1000 mg/kg, Plasma concentration

Compound: Cc1c(-c2ccc(O)cc2)n(Cc2ccc(OCCN3CCCCC3)cc2)c2ccc(O)cc12 [Pipendoxifene, 2-(4-hydroxyphenyl)-3-methyl-1-[[4-(2-piperidin-1-ylethoxy)phenyl]methyl]indol-5-ol]
- primary metabolite [1]: indole glucuronide
- Kp ([2]; C24 h lung concentrations relative to plasma concentrations (higher)): 3 to 4
- Kp ([2]; po, 250 mg/kg, L/P Ratio): 4.04
- Kp ([2]; po, L/P Ratio): 4.03
- C24h plasma concentration ([3]; 125 mg/kg): 290 ng/mL
- C24h plasma concentration ([3]; 250 mg/kg): 194 ng/mL
- Lung concentration ([3]; po, 250 mg/kg): 784 ng/mL
- Plasma concentration ([3]; po, 250 mg/kg): 194 ng/mL
- Lung Cmax over SARS-CoV-2 IC50 ([4]; 50 mg/kg): 17 fold
- Mean plasma concentration ([4]; 50 mg/kg PO single dose, 1.0 hr): 89.1 ng/mL
- Lung Cmax over SARS-CoV-2 IC50 ([4]; 250 mg/kg): 121 fold
- Mean plasma concentration ([4]; 250 mg/kg PO single dose, 0.5 hr): 88.8 ng/mL
- adverse reactions / tolerability [4]: no adverse events
- adverse reactions / tolerability ([4]; listed as MDL-001): well tolerated with no adverse clinical signs; also recorded: No adverse reactions were observed
- adverse reactions / tolerability ([4]; listed as pipendoxifene): No adverse reactions were observed
- concentration at 8 hr ([4]; female, 129S1, mouse, in vivo, 50 mg/kg): 7840 ng/g
- Kp ([4]; female, 129S1, mouse, in vivo, 50 mg/kg, Day 1, 50 mg/kg): 65
- Kp ([4]; female, 129S1, mouse, in vivo, 50 mg/kg, Day 5, 50 mg/kg): 56
- concentration at 8 h [4, 15]: 575 ± 194 ng/mL
- concentration at 8 hr [4, 15]: 121 ng/mL
- half-life [4, 15]: 2.36 to 3.96 h
- Kp ([4]; female, 129S1, mouse, in vivo, 250 mg/kg, Day 1, 250 mg/kg): 36
- Kp ([4]; female, 129S1, mouse, in vivo, 250 mg/kg, Day 5, 250 mg/kg): 44
- Cmax [4, 16]: 179 ng/mL and 8310 ng/g
- Cmax at 5 day [4, 16]: 5610 ± 925 ng/g
- half-life [4, 16]: 2.36 h
- half-life at 5 day [4, 16]: 2.58 h
- AUC(0-t) [4, 17]: 1390 ± 55 ng·h/mL
- AUC(0-t) [4, 18]: 1600 ± 115 ng·h/mL
- AUC(0-inf) [4, 17]: 1400 ng·h/mL
- AUC(0-inf) [4, 18]: 1600 ng·h/mL
- MRT last at 5 day [4, 17]: 7.1 h
- MRT last [4, 18]: 6.95 h
- Tmax at 5 day ([4]; female, 129S1, mouse, in vivo, po, 50 mg/kg, lung, 50 mg/kg PO multiple, 5-day, dose): 8 h
- Tmax ([4]; female, 129S1, mouse, in vivo, po, 50 mg/kg, lung, 50 mg/kg PO single dose): 4 h
- Tmax [4, 18]: 2 h
- Cmax [4, 19]: 1020 ng/mL and 24700 ng/g
- Cmax at 5 day [4, 19]: 39000 ± 8840 ng/g
- half-life [4, 19]: 3.96 h
- half-life at 5 day [4, 19]: 2.52 h
- AUC(0-t) [4, 20]: 11600 ± 1190 ng·h/mL
- AUC(0-inf) [4, 20]: 11700 ng·h/mL
- AUC(0-inf) [4, 21]: 10500 ng·h/mL
- Kp at 24 h ([4]; female, 129S1, mouse, in vivo, po, 250 mg/kg, Day 1): 114
- Kp at 24 h ([4]; female, 129S1, mouse, in vivo, po, 250 mg/kg, Day 5): 177
- MRT last at 5 day [4, 22]: 7.22 h
- MRT last [4, 21]: 8.86 h
- Tmax at 5 day [4, 22]: 4 h
- Tmax ([4]; female, 129S1, mouse, in vivo, po, 250 mg/kg, lung, 250 mg/kg PO single dose): 8 h
- concentration at 8 h ([4]; female, 129S1, mouse, lung, oral, 50 mg/kg, Mean lung tissue concentration, 50 mg/kg PO multiple, 5-day, dose, 8.0 hr): 5610 ± 1600 ng/g
- concentration at 1 hr ([4]; female, 129S1, mouse, plasma, oral, 50 mg/kg, Mean plasma concentration, 50 mg/kg PO single dose, 1.0 hr): 89.1 ± 71.2 ng/mL
- concentration at 4 h ([4]; female, 129S1, mouse, plasma, oral, 50 mg/kg, Mean plasma concentration, 50 mg/kg PO single dose, 4.0 hr): 107 ± 23 ng/mL
- concentration at 2 hr ([4]; female, 129S1, mouse, plasma, oral, 50 mg/kg, Plasma Conc., individual mouse, 50 mg/kg PO multiple, 5-day, dose, 2.0 hr): 113 ng/mL
- concentration at 6 hr ([4]; female, 129S1, mouse, plasma, oral, 50 mg/kg, Plasma Conc., individual mouse, 50 mg/kg PO multiple, 5-day, dose, 6.0 hr): 163 ng/mL
- concentration at 8 hr ([4]; female, 129S1, mouse, plasma, oral, 50 mg/kg, Plasma Conc., individual mouse, 50 mg/kg PO single dose, 8.0 hr): 113 ng/mL
- concentration at 0.5 h ([4]; female, 129S1, mouse, plasma, oral, 250 mg/kg, Mean plasma concentration, 250 mg/kg PO single dose, 0.5 hr): 88.8 ± 14.1 ng/mL
- concentration at 4 hr ([4]; female, 129S1, mouse, plasma, oral, 250 mg/kg, Plasma Conc., individual mouse, 250 mg/kg PO multiple, 5-day, dose, 4.0 hr): 497 ng/mL
- increase of plasma AUClast [5]: about 2 fold
- AUClast ([5]; po, 250 mg/kg): 3515 ng·h/mL
- Tmax ([5]; po, 250 mg/kg): 5.33 h
- Tmax ([5]; po, 500 mg/kg): 6.67 h
- Tmax ([5]; po, 750 mg/kg): 6.67 h
- activity in HTS [6]: INACTIVE
- activity in the HeLa-ACE2 cell-based SARS-CoV-2 assay [7]: demonstrated activity
- activity in HTS [8]: INACTIVE
- IC50 expressed as mass concentration [9]: 0.328 µg/mL (≈ 0.718 µM)
- AUC(0-t) ([10]; 250 mg/kg): 4120 ng·h/mL
- Cmax ([10]; 250 mg/kg): 336 ng/mL
- Tmax ([10]; 250 mg/kg, tmax): 6 h
- Cmax ([10]; 500 mg/kg): 462 ng/mL
- Tmax ([10]; 500 mg/kg, tmax): 6 h
- AUC(0-t) ([10]; 750 mg/kg): 5260 ng·h/mL
- Tmax ([10]; 750 mg/kg, tmax): 6 h
- AUC(0-t) ([10]; 1000 mg/kg): 5700 ng·h/mL
- AUC(0-inf) ([10]; 1000 mg/kg, AUC∞): 7730 ng·h/mL
- Cmax ([10]; 1000 mg/kg): 452 ± 75 ng/mL
- concentration at 0.25 h [10, 23]: 5.05 ng/mL
- concentration at 0.25 hr [10, 23]: 5.05 ng/mL
- concentration at 2 h [10, 23]: 226 ng/mL
- concentration at 2 hr [10, 23]: 226 ng/mL
- concentration at 4 h [10, 23]: 335 ng/mL
- concentration at 4 hr [10, 23]: 335 ng/mL
- concentration at 6 h [10, 23]: 489 ng/mL
- concentration at 8 h [10, 23]: 295 ng/mL
- concentration at 8 hr [10, 23]: 295 ng/mL
- Tmax ([10]; 1000 mg/kg, tmax): 6 h
- Tmax ([10]; Mean Tmax (plasma), range): 5.3 to 6 h
- activity in HTS [11]: INACTIVE
- lung concentrations achieved [12]: greater than 30 ug/g
- Plasma concentration ([12]; 250 mg/kg, 24 h): 34 ng/mL
- mean t1/2 ([13]; 150 mg dose): 15.8 h
- mean t1/2 ([13]; 200 mg dose): 26 h
- Clearance ([13]; in vivo): 4 to 10.5 h⁻¹ kg⁻¹
- time to steady-state plasma levels ([13]; in vivo): 4 to 5 days
- Kp [14]: ~50
- Tmax ([14]; 250 mg/kg, Mean Tmax (plasma)): 2 to 6 h
- Tmax ([14]; 250 mg/kg, Tmax (lung)): 4 to 8 h
- Cmax at 5 day ([14]; po, 50 mg/kg): 178 ± 8 ng/mL
- MRT last ([14]; po, 50 mg/kg): 6.79 h
- MRT last at 5 day ([14]; po, 50 mg/kg): 7.35 h
- Tmax at 5 day ([14]; po, 50 mg/kg): 5 h
- Cmax at 5 day ([14]; po, 250 mg/kg): 1050 ± 230 ng/mL
- MRT last ([14]; po, 250 mg/kg): 8.27 h
- Tmax at 5 day ([14]; po, 250 mg/kg): 6 h
